The values that follow come from publication PMC10238325, “Optimization of antimicrobial peptides for the application against biocorrosive bacteria” (Applied Microbiology and Biotechnology, 2023).

In brackets after ≈: the same amount, converted by molar mass. Where a SMILES comes first, the peptide text is derived from it. Where no end group is shown, it is not given here.

Data set [1] deals with Thiomonas intermedia DSM 18155. Type of data set: cell-based. The settings on record: DSM 18155, 48 h. The protocol: (§1) The following SRB were used: Desulfovibrio vulgaris DSM 644, Desulfovibrio desulfuricans DSM 642, and Desulfovibrio indonesiensis DSM 15121. The Postgate medium (DSMZ medium 63) with a modification of 0.004 g/L FeSO4 × 7 H2O and 0.3 g/L Tri-sodium citrate (and 2% NaCl for D. indonesiensis) was flushed with nitrogen gas. Each culture was subcultured 1:100. Cultivation occurred for 48 h, 37 °C (30 °C for D. desulfuricans), without shaking. The following SOB was used: Thiomonas intermedia DSM 18155. Therefore, the Thiomonas medium (DSMZ medium 35a) was used, subcultured 1:100, and cultivated for 48 h, 30 °C, 115 rpm. Escherichia coli K12 ATCC 25404 was grown in LB Lennox medium (Carl Roth GmbH & Co.KG Karlsruhe, Germany) for 18 h, 37 °C, 115 rpm and diluted 1:1000 in Mueller-Hinton broth (Carl Roth GmbH & Co.KG Karlsruhe, Germany). Incubation during the assay took place for 24 h, 37 °C, 115 rpm.
(§2) A stock solution of 1 mg/mL in milliQ from the respective peptide and a concentration range of 1000–1.95 μg/mL was prepared by serial 2-fold dilution. 20 μL of each test substance (n=3) per well was added to a 96-well microtiter plate (polystyrene). 100 μL of each bacteria suspension (start OD600: 0.001) was added to the well with test substance, as well as 120 μL as growth control (n=35) and 120 μL medium (n=1) as sterile control to an empty well. To avoid evaporation, all microtiter plates were cultivated in air-tight containers during the incubation period. Microtiter plates for testing on SRB were prepared in the anaerobic chamber (Coy Laboratory Products Inc. Grass Lake, United States of America) and cultivated in air-tight containers including Oxoid anaerobic bag (Thermo Fisher Scientific Inc. Waltham, United States of America) to ensure anaerobic conditions. The microtiter plates were measured before and after incubation at OD600, and the growth inhibition in % was determined with the following equation:1 inhibition%=ΔOD600testsubstance/ΔOD600growthcontrole∙100%
(§3) The minimum inhibitory concentration (MIC) describes the lowest concentration where no bacterial growth could be detected. Besides the MIC100, where a complete reduction of bacterial growth could be detected, other partial inhibitions such as MIC95 or MIC50, where 95% or 50% growth inhibition occurs, can be specified.

Data set [2] relates to Desulfovibrio vulgaris DSM 644. Type of data set: cell-based. To be noted: for MIC95 D. vulgaris: 95% growth inhibition, 96-well microdilution, 2-fold series 1000–1.95 μg/mL, n=3, OD600, modified Postgate medium, anaerobic. Here is the method: as §1, §2, §3
Data set [3] deals with Desulfovibrio desulfuricans DSM 642. It is filed as cell-based. The settings on record: DSM 642, 48 h. The protocol: as §1, §2, §3
For data set [4], the system named is Desulfovibrio indonesiensis DSM 15121. As to the kind of experiment: MIC assay against D. indonesiensis. It is filed as cell-based. The settings on record: 95% growth inhibition; 96-well microdilution, n=3, OD600; modified Postgate medium with 2% NaCl, anaerobic, 48 h, 37 °C, without shaking. Here is the method: as §1, §2, §3
Background: Dilution methods test growth across graded concentrations, often in twofold steps.

Another data set is described as follows: in vitro. Type of data set: in vitro ADME, Desulfovibrio vulgaris. The settings on record: for remaining at 48 h, 1 mg/mL / remaining at 168 h, 1 mg/mL: cells or culture medium. The protocol:
The analysis of the peptides was performed on a RP-HPLC (Agilent 1100, detector: diode array detector G1315A, column: Phenomenex®-Aeris™ 2.6 μm Peptide XB-C18 100 Å,150 × 2.1 mm), and ESI-LC-MS was performed (Knauer, detector: Surveyor MSQ, column: Eurospher II 100-2 C18A, 100 × 2 mm, 2 μm). The gradient was performed with a flow rate of 0.25 mL/min from 99% of mobile phase A (0.1% TFA in milliQ) over 15 min to 95% of mobile phase B (0.1% TFA in acetonitrile), kept at 95% with B for 2 min, and equilibrated at 99% with A for another 3 min. 20 μL (RP-HPLC) and 10 μL (ESI-LC-MS) peptide solution (250 μg/mL in milliQ) was injected.
For the stability tests, a bacterial suspension (7 days old) of D. vulgaris was centrifuged at 5000 rpm for 10 min. 1 mg/mL peptide solution was prepared within the supernatant and incubated at 37 °C for 7 days. The respective aliquots (t=0, 48, 72, 168 h) were mixed 1:10 with quenching solution (milliQ + 0.08% trifluoroacetic acid) and analyzed in triplicates according to the protocol described above for RP-HPLC. In addition, after incubation in the supernatant (168 h), the peptide (P3.2.) was analyzed for activity using the MIC assay.

A further data set concerns SRB. The settings on record: ref Greene et al. [2006]; cited from earlier work. From the text:
The current strategy to control microbial-influenced corrosion is based on biocides, which lead to fast resistance, requiring higher and higher concentrations to eradicate the bacteria. Alternative treatment strategies are based on additives like D-amino acids or chelates to biocides to reduce the required biocide concentration by a synergistic effect. However, these additives are not inhibitory on their own, and although a reduced biocide concentration is required, the presence of biocide is still necessary (Jia et al. [2017]; Wen et al. [2012]; Wen et al. [2009]). In this paper, a new method ...

Usually share remaining stands for what is left of the initial amount, in per cent. As to `CC[C@H](C)[C@H](NC(=O)[C@H](CCCNC(=N)N)NC(=O)[C@H](CS)NC(=O)[C@H](CC(C)C)NC(=O)[C@@H](N)CCCNC(=N)N)C(=O)N[C@H](C(=O)N[C@H](C(=O)N[C@H](C(=O)N[C@@H](CCCNC(=N)N)C(=O)N[C@H](C(=O)N[C@@H](CS)C(=O)N[C@@H](CCCNC(=N)N)C(=O)O)C(C)C)[C@@H](C)CC)C(C)C)C(C)C` [Bactenecin] (H-RLCRIVVIRVCR-OH; N-terminus and C-terminus assumed), in data set [1], the “MIC50 T. intermedia” value was found to be 62.5 µg/mL (≈ 42.1 µM). The “MIC95 D. vulgaris” value in data set [2] (48 h, 37 °C, without shaking) stood at 62.5 µg/mL (≈ 42.1 µM). The “MIC50 D. desulfuricans” value in data set [3] turned out to be 250 µg/mL (≈ 168 µM). For the same compound, the “MIC95 D. indonesiensis” value in data set [4] was determined as 31.25 µg/mL (≈ 21 µM). In addition, in “in vitro”, the “stability in supernatant (in words)” value is given as “significant stability loss after only 48 h”; the fraction remaining at 48 h, 1 mg/mL was 41%; the amount remaining at 168 h, 1 mg/mL worked out at 17%.
Turning to `CC(C)C[C@H](NC(=O)[C@H](CC(C)C)NC(=O)[C@H](CCCCN)NC(=O)[C@H](CCCCN)NC(=O)[C@H](CC(C)C)NC(=O)[C@H](Cc1c[nH]c2ccccc12)NC(=O)[C@H](CCCCN)NC(=O)[C@H](Cc1c[nH]c2ccccc12)NC(=O)[C@H](CC(C)C)NC(=O)[C@H](CCCCN)NC(=O)[C@H](CCCCN)NC(=O)CCCCCN)C(N)=O` [Peptide P3.2.] (HELM PEPTIDE1{[NCCCCCC(=O)[*:2]].K.K.L.W.K.W.L.K.K.L.L.[am]}$$$$V2.0), in data set [2] (48 h, 37 °C, without shaking), the “MIC95 D. vulgaris” value was 15.63 µg/mL (≈ 9.79 µM). In data set [2] (DSM 644, 168 h), the “MIC50 D. vulgaris after incubation in supernatant” value was found to be 31.25 µg/mL (≈ 19.6 µM). Besides, the “MIC95 D. vulgaris after incubation in supernatant” value in data set [2] (peptide (1 mg/mL) first incubated 168 h in D. vulgaris supernatant, then dilution series, 48 h, 37 °C, without shaking) amounted to 62.5 µg/mL (≈ 39.2 µM). Moreover, the “MIC50 D. desulfuricans” value in data set [3] is 250 µg/mL (≈ 157 µM). Moreover, in data set [4], the “MIC95 D. indonesiensis” value is 125 µg/mL (≈ 78.3 µM). In the data set “in vitro”, this compound displayed a fraction remaining at 48 h, 1 mg/mL of 99% and a fraction remaining at 168 h, 1 mg/mL of 85%.
Turning to `CC(C)C[C@H](NC(=O)[C@H](CC(C)C)NC(=O)[C@H](CCCCN)NC(=O)[C@H](CCCCN)NC(=O)[C@H](CC(C)C)NC(=O)[C@H](Cc1c[nH]c2ccccc12)NC(=O)[C@H](CCCCN)NC(=O)[C@H](Cc1c[nH]c2ccccc12)NC(=O)[C@H](CC(C)C)NC(=O)[C@H](CCCCN)NC(=O)[C@H](CCCCN)NC(=O)CCCCCCCN)C(N)=O` [Peptide P3.3.] (HELM PEPTIDE1{[NCCCCCCCC(=O)[*:2]].K.K.L.W.K.W.L.K.K.L.L.[am]}$$$$V2.0), the “MIC50 D. desulfuricans” value in data set [3] worked out at 250 µg/mL (≈ 154 µM).
Turning to `CCCCCCCCCC(=O)N[C@@H](CCCCN)C(=O)N[C@@H](CCCCN)C(=O)N[C@@H](CC(C)C)C(=O)N[C@@H](Cc1c[nH]c2ccccc12)C(=O)N[C@@H](CCCCN)C(=O)N[C@@H](Cc1c[nH]c2ccccc12)C(=O)N[C@@H](CC(C)C)C(=O)N[C@@H](CCCCN)C(=O)N[C@@H](CCCCN)C(=O)N[C@@H](CC(C)C)C(=O)N[C@@H](CC(C)C)C(N)=O` [Peptide P3.4.] (HELM PEPTIDE1{[CCCCCCCCCC(=O)[*:2]].K.K.L.W.K.W.L.K.K.L.L.[am]}$$$$V2.0), the “MIC95 D. vulgaris” value in data set [2] (48 h, 37 °C, without shaking) amounted to 31.25 µg/mL (≈ 19.1 µM). The “MIC50 D. desulfuricans” value in data set [3] is 125 µg/mL (≈ 76.3 µM). The “MIC95 D. indonesiensis” value in data set [4] was 31.25 µg/mL (≈ 19.1 µM).
For the compound `CCCCCCCCCCCC(=O)N[C@@H](CCCCN)C(=O)N[C@@H](CCCCN)C(=O)N[C@@H](CC(C)C)C(=O)N[C@@H](Cc1c[nH]c2ccccc12)C(=O)N[C@@H](CCCCN)C(=O)N[C@@H](Cc1c[nH]c2ccccc12)C(=O)N[C@@H](CC(C)C)C(=O)N[C@@H](CCCCN)C(=O)N[C@@H](CCCCN)C(=O)N[C@@H](CC(C)C)C(=O)N[C@@H](CC(C)C)C(N)=O` [Peptide P3.5.] (HELM PEPTIDE1{[CCCCCCCCCCCC(=O)[*:2]].K.K.L.W.K.W.L.K.K.L.L.[am]}$$$$V2.0), the “MIC95 D. vulgaris” value in data set [2] (48 h, 37 °C, without shaking) came to 62.5 µg/mL (≈ 37.5 µM). The “MIC50 D. desulfuricans” value in data set [3] came to 62.5 µg/mL (≈ 37.5 µM). Also, the “MIC95 D. indonesiensis” value in data set [4] was found to be 31.25 µg/mL (≈ 18.8 µM).
Consider `CCCCCCCCCCCCCC(=O)N[C@@H](CCCCN)C(=O)N[C@@H](CCCCN)C(=O)N[C@@H](CC(C)C)C(=O)N[C@@H](Cc1c[nH]c2ccccc12)C(=O)N[C@@H](CCCCN)C(=O)N[C@@H](Cc1c[nH]c2ccccc12)C(=O)N[C@@H](CC(C)C)C(=O)N[C@@H](CCCCN)C(=O)N[C@@H](CCCCN)C(=O)N[C@@H](CC(C)C)C(=O)N[C@@H](CC(C)C)C(N)=O` [Peptide P3.6.] (HELM PEPTIDE1{[CCCCCCCCCCCCCC(=O)[*:2]].K.K.L.W.K.W.L.K.K.L.L.[am]}$$$$V2.0), for which the “MIC95 D. vulgaris” value in data set [2] (48 h, 37 °C, without shaking) was found to be 125 µg/mL (≈ 73.8 µM). Besides, the “MIC50 D. desulfuricans” value in data set [3] was 125 µg/mL (≈ 73.8 µM). Further, in data set [4], the “MIC95 D. indonesiensis” value is 62.5 µg/mL (≈ 36.9 µM).
With `O=S(=O)([O-])[O-].OC[P+](CO)(CO)CO.OC[P+](CO)(CO)CO` [THPS, tetrakis(hydroxymethyl)phosphonium sulfate], the “concentration required to inhibit SRB growth” value with SRB is 40 µg/mL.
Consider Ac-KKLWKWLKKLL-NH2 [Peptide P3.1.], for which the “MIC95 D. vulgaris” value in data set [2] (48 h, 37 °C, without shaking) was 31.25 µg/mL. Moreover, the “MIC50 D. desulfuricans” value in data set [3] turned out to be 500 µg/mL. Moreover, the “MIC95 D. indonesiensis” value in data set [4] came to 125 µg/mL.
Take FFGKVLKLIRKIF [DASamP1]: the “MIC50 T. intermedia” value in data set [1] was 125 µg/mL. The “MIC50 D. desulfuricans” value in data set [3] came out at 500 µg/mL. In addition, the share remaining at 48 h, 1 mg/mL in the data set “in vitro” was 99%.
Regarding FKKFWKWFRRF [Peptide S6L3-33], the “MIC50 T. intermedia” value in data set [1] was 62.5 µg/mL. Also, the “MIC50 D. desulfuricans” value in data set [3] was 500 µg/mL. Also, in “in vitro”, the share remaining at 48 h, 1 mg/mL is 93% and the fraction remaining at 168 h, 1 mg/mL was 85%.
Turning to KKLLKWLKKLL [Peptide L5K5W], in data set [1], the “MIC50 T. intermedia” value was determined as 500 µg/mL. Further, in data set [3], the “MIC50 D. desulfuricans” value is greater than 1000 µg/mL. Moreover, in the data set “in vitro”, the share remaining at 48 h, 1 mg/mL was 91% and the amount remaining at 168 h, 1 mg/mL is 80%.
With KKLWKWLKKLL [Peptide L5K5W-W4I6], the “MIC50 D. desulfuricans” value in data set [3] is greater than 1000 µg/mL. Besides, in “in vitro”, the amount remaining at 48 h, 1 mg/mL turned out to be 94% and the share remaining at 168 h, 1 mg/mL was determined as 86%.
For KKLWKWLKKLL-NH2 [Peptide P2.1.], the “MIC50 D. desulfuricans” value in data set [3] was 250 µg/mL.
Still for that read-out and setting: next, RRLWRWLRRLL [Peptide P1.1.]: 1000 µg/mL.
